What was measured:
Type in all cases: cell-based
PANC1005 = assay: Cancer cell growth inhibition; details: Homo sapiens; PANC1005 (pancreas), 72 hr treatment
Protocol: (§1) The ability of select compounds to inhibit cell growth in various cancer cell lines are evaluated. […] The cell lines shown in Table 2 have reduced growth by at least 50% at 10 uM or lower over 72 hr treatment in growth media. The cell lines shown in Table 3 have reduced growth by at least 50% with an IC50 greater than 10 uM.
(§2) Six 10-fold compound dilutions are prepared in DMSO (e.g. 10 mM, 1 mM, 100 uM, 10 uM, 1 uM, and 0.1 uM). Single data points are acquired for each concentration. The final concentration of DMSO is 0.1%. The duration of the treatment is 72 hr. Growth inhibition is measured using Sulforhodamine B in a protein staining assay. Activity of the agents is determined by evaluation the following parameters: IC50, GI50, IC10, TGI, LC50, IC90, and GI90 (where these values can be calculated).

IMR90 = assay: Cancer cell growth inhibition; details: Homo sapiens, IMR-90; IMR90 (lung), 72 hr treatment
Protocol: as §1, §2

L-363 = assay: Cancer cell growth inhibition; details: Homo sapiens; L-363 (hematological), 72 hr treatment
Protocol: as §1, §2

HELA = assay: Cancer cell growth inhibition; details: Homo sapiens; HELA (endometrial), 72 hr treatment
Protocol: as §1, §2

SKNSH = assay: Cancer cell growth inhibition; details: Homo sapiens, SK-N-SH; SKNSH (brain), 72 hr treatment
Protocol: as §1, §2

ASPC1 = assay: Cancer cell growth inhibition; details: Homo sapiens; ASPC1 (pancreas), 72 hr treatment
Protocol: as §1, §2

IGROV1 = assay: Cancer cell growth inhibition; details: Homo sapiens, IGROV-1; IGROV1 (ovary), 72 hr treatment
Protocol: as §1, §2

A204 = assay: Cancer cell growth inhibition; details: Homo sapiens; A204 (muscle), 72 hr treatment
Protocol: as §1, §2

MHHES1 = assay: Cancer cell growth inhibition; details: Homo sapiens, MHH-ES-1; MHHES1 (bone), 72 hr treatment
Protocol: as §1, §2

OVCAR3 = assay: Cancer cell growth inhibition; details: Homo sapiens, OVCAR-3; OVCAR3 (ovary), 72 hr treatment
Protocol: as §1, §2

K-562 = assay: Cancer cell growth inhibition; details: Homo sapiens, K562; K-562 (hematological), 72 hr treatment
Protocol: as §1, §2

MG63 = assay: Cancer cell growth inhibition; details: Homo sapiens, MG-63; MG63 (bone), 72 hr treatment
Protocol: as §1, §2

OVCAR4 = assay: Cancer cell growth inhibition; details: Homo sapiens, OVCAR-4; OVCAR4 (ovary), 72 hr treatment
Protocol: as §1, §2

MINO = assay: Cancer cell growth inhibition; details: Homo sapiens; MINO (hematological), 72 hr treatment
Protocol: as §1, §2

SKLMS1 = assay: Cancer cell growth inhibition; details: Homo sapiens, SK-LMS-1; SKLMS1 (uterus), 72 hr treatment
Protocol: as §1, §2

5637 = assay: Cancer cell growth inhibition; details: 5637 (bladder), 72 hr treatment
Protocol: as §1, §2

JAR = assay: Cancer cell growth inhibition; details: JAR (placenta), 72 hr treatment
Protocol: as §1, §2

SF268 = assay: Cancer cell growth inhibition; details: Homo sapiens, SF-268; SF268 (brain), 72 hr treatment
Protocol: as §1, §2

A673 = assay: Cancer cell growth inhibition; details: Homo sapiens; A673 (muscle), 72 hr treatment
Protocol: as §1, §2

JEG3 = assay: Cancer cell growth inhibition; details: Homo sapiens, JEG-3; JEG3 (placenta), 72 hr treatment
Protocol: as §1, §2

SREBP = assay: Reporter Screening Assay (SRE-luciferase reporter, HepG2); details: Homo sapiens; SRE-luciferase reporter HepG2 cells, 24 hours, 0.01 uM to 10 uM; read-out: I: Reporter Screening Assay (Ave EC50 (nM))
Outline: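 HepG2 SREBP reporter cells carrying an SRE-luciferase construct were serum-washed, then treated for 24 h at 37° C with compounds (0.01 uM to 10 uM) in phenol-free medium with varying FBS levels. Total luminescence was read after a 30 min incubation with luciferase substrate.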

Row | Compound | IC50 (PANC1005) [µM] | IC50 (IMR90) [µM] | IC50 (L-363) [µM] | IC50 (HELA) [µM] | IC50 (SKNSH) [µM] | IC50 (ASPC1) [µM] | IC50 (IGROV1) [µM] | IC50 (A204) [µM] | IC50 (MHHES1) [µM] | IC50 (OVCAR3) [µM] | IC50 (K-562) [µM] | IC50 (MG63) [µM] | IC50 (OVCAR4) [µM] | IC50 (MINO) [µM] | IC50 (SKLMS1) [µM] | IC50 5637 [µM] | IC50 (JAR) [µM] | IC50 (SF268) [µM] | IC50 (A673) [µM] | IC50 (JEG3) [µM] | further results
1 | CC(C)(CO)c1cc(-c2csc(-c3ccc(NS(C)(=O)=O)cc3Cl)c2)ccn1 [Compound I-8909, N-(3-chloro-4-(4-(2-(1-hydroxy-2-methylpropan-2-yl)pyridin-4-yl)thiophen-2-yl)phenyl)methanesulfonamide] | < 10 | > 10 | < 10 | < 10 | < 10 | < 10 | > 10 | < 10 | < 10 | < 10 | < 10 | > 10 | < 10 | < 10 | > 10 | < 10 | < 10 | < 10 | > 10 | < 10 | EC50 (SREBP): < 249 nM
2 | CC(C)(O)Cc1cc(-c2csc(-c3ccc(NS(C)(=O)=O)cc3Cl)c2)ccn1 [Compound I-9004, N-(3-chloro-4-(4-(2-(2-hydroxy-2-methylpropyl)pyridin-4-yl)thiophen-2-yl)phenyl)methanesulfonamide] | < 10 | > 10 | < 10 | < 10 | < 10 | < 10 | > 10 | > 10 | < 10 | < 10 | < 10 | > 10 | < 10 | < 10 | > 10 | > 10 | < 10 | < 10 | > 10 | < 10 | EC50 (SREBP): < 249 nM
3 | CS(=O)(=O)Nc1ccc(-c2cc(-c3ccnc4c3OCCO4)cs2)c(Cl)c1 [Compound I-9017, N-(3-chloro-4-(4-(2,3-dihydro-[1,4]dioxino[2,3-b]pyridin-8-yl)thiophen-2-yl)phenyl)methanesulfonamide] | > 10 | > 10 | < 10 | < 10 | < 10 | < 10 | < 10 | < 10 | < 10 | < 10 | < 10 | > 10 | < 10 | < 10 | > 10 | < 10 | < 10 | < 10 | < 10 | < 10 | EC50 (SREBP): < 249 nM

— patent publication US20220056018A1, “SREBP INHIBITORS COMPRISING A THIOPHENE CENTRAL RING” (Capulus Therapeutics, LLC, priority 2019, published 2022)
